Results published in US8691982B2, “Pyrazolo[1,5-a]-1,3,5-triazine derivatives, preparation thereof, and therapeutic use thereof” (Centre National de la Recherche Scientifique, priority 2009, dated 2014).
pIC50: −log10 of the molar value. Structures can show the parent of a compound that is named as a salt.

Legend:
GSK-3α/β = GSK-3α/β kinase assay; assay type: biochemical, pig; conditions: 15 μM ATP, 30° C., buffer A, GS-1 substrate
CDK5/p25 = CDK5/p25 (Homo sapiens, UniProt Q00535); assay: CDK5/p25 kinase assay; assay type: biochemical, mammalian; conditions: 15 μM ATP, 30° C., histone H1 substrate
Description: (§1) Buffer C: 60 mM β-glycerophosphate, 15 mM p-nitrophenyl phosphate, 25 mM Mops (pH 7.2), 5 mM EGTA, 15 mM MgCl2, 1 mM DTT, 1 mM sodium vanadate, 1 mM phenyl phosphate, 10 μg leupeptin/ml, 10 μg aprotinin/ml and 100 μM benzamidine.
(§2) Controls were performed with appropriate dilutions of dimethyl sulfoxide.
(§3) ATP (3000 Ci/mmol; 10 mCi/ml) in a final volume of 30 μl. After incubation for 30 minutes at 30° C., aliquotes of 25 μl of the supernatant were spotted onto Whatman P81 phosphocellulose paper filters and, 20 seconds later, the filters were washed five times (for at least five minutes each time) in a solution of 10 ml of phosphoric acid/liter of water. The wet filters were subjected to counting in the presence of an ACS scintillation fluid from Amersham. CDK2/cyclin A (human, recombinant, expressed in insect cells) was assayed as described for CDK1/cyclin B. CDK5/p25 was reconstituted by mixing equal amounts of recombinant mammalian CDK5 and p25 expressed in E. coli as a GST (glutathione-S-transferase) fusion protein and purified by affinity chromatography on glutathione-agarose (p25 is a truncated version of p35, the 35 kDa CDK5 activator). […] DYRK1A (human, recombinant, expressed in E. coli as a GST fusion protein) was purified on glutathione-agarose, assayed as described for CDK1/cyclin B with myelin basic protein (1 mg/ml) as substrate.

DYRK1A = DYRK1A (Homo sapiens, UniProt Q13627); assay: DYRK1A kinase assay; assay type: biochemical; conditions: 15 μM ATP, 30° C., myelin basic protein substrate
Description: (§4) The blank values were subtracted and the activities calculated as μmoles of phosphate incorporated per 10 minutes of incubation. […] Controls were performed with appropriate dilutions of dimethyl sulfoxide.
as §3

[1] = test system: SH-SY5Y human neuroblastoma cells; assay: SH-SY5Y cell viability (MTS reduction); assay type: cell-based; conditions: SH-SY5Y cell line, cell viability by MTS
Description: A Cell Titer 96® kit containing the MTS reagent was purchased from Promega (Madison, Wis., USA). The protease inhibitor cocktail came from Roche and the fetal calf serum (FCS) came from Invitrogen. The reagents not listed came from Sigma, unless otherwise indicated.
The SH-SY5Y human neuroblastoma cell line was grown in a DMEM medium with L-glutamine from Invitrogen (Cergy Pontoise, France), antibiotics and 10% by volume of FCS from Invitrogen. The general culture conditions were a 5% CO2 atmosphere and a temperature of 37° C. The culture plates and other disposable plastic tools were supplied by Corning (Corning, N.Y., USA). The treatments with the compounds of the invention were carried out on cultures in exponential growth over time, and indicated concentrations. The control experiments were carried out also using suitable dilutions of DMSO.
The cell viability was determined by measuring the reduction of 3-(4,5-dimethylthiazol-2-yl)-5-(3-carboxymethoxyphenyl)-2-(4-sulfophenyl)-2H-tetrazolium (MTS).

CK1δ/ε = CK1δ/ε kinase assay; assay type: biochemical, pig; conditions: 15 μM ATP, 30° C., CK1-specific peptide substrate
Description: as §4, §3

CDK1/cyclin B = CDK1/cyclin B kinase assay; assay type: biochemical, starfish (Marthasterias glacialis); conditions: 15 μM ATP, 30° C., histone H1 substrate
Description: Homogenization buffers: 60 mM β-glycerophosphate, 15 mM p-nitrophenyl phosphate, 25 mM Mops (pH 7.2), 15 mM EGTA, 15 mM MgCl2, 1 mM DTT, 1 mM sodium vanadate, 1 mM NaF, 1 mM phenyl phosphate, 10 μg leupeptin/ml, 10 μg aprotinin/ml, 10 μg soybean trypsin inhibitor/ml and 100 μM benzamidine.
as §1, §2, §3

CDK2/cyclin A = target: T1, CDK2/cyclin A (Homo sapiens, UniProt P24941); assay: CDK2/cyclin A kinase assay; assay type: biochemical; conditions: 15 μM ATP, 30° C., histone H1 substrate
T1 construct: host or cells: insect cells
Description: as §1, §2, §3

CDK9/cyclin T = target: T2, CDK9/cyclin T (Homo sapiens, UniProt P50750); assay: CDK9/cyclin T kinase assay; assay type: biochemical; conditions: 15 μM ATP, 30° C., pRB fragment substrate
T2 construct: host or cells: insect cells
T2 sequence (P50750 whole entry, the tested form may be a part): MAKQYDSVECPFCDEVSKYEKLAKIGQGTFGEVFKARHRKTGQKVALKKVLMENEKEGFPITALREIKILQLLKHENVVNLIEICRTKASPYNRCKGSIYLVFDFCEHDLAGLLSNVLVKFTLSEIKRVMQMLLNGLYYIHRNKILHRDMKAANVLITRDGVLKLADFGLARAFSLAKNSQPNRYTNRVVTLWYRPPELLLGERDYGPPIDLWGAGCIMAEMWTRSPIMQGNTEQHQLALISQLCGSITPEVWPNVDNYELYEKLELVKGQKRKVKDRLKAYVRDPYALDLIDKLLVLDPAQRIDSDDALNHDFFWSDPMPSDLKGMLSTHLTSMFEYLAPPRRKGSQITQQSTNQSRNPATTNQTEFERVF
T2 sequence (O60563 whole entry partner, the tested form may be a part): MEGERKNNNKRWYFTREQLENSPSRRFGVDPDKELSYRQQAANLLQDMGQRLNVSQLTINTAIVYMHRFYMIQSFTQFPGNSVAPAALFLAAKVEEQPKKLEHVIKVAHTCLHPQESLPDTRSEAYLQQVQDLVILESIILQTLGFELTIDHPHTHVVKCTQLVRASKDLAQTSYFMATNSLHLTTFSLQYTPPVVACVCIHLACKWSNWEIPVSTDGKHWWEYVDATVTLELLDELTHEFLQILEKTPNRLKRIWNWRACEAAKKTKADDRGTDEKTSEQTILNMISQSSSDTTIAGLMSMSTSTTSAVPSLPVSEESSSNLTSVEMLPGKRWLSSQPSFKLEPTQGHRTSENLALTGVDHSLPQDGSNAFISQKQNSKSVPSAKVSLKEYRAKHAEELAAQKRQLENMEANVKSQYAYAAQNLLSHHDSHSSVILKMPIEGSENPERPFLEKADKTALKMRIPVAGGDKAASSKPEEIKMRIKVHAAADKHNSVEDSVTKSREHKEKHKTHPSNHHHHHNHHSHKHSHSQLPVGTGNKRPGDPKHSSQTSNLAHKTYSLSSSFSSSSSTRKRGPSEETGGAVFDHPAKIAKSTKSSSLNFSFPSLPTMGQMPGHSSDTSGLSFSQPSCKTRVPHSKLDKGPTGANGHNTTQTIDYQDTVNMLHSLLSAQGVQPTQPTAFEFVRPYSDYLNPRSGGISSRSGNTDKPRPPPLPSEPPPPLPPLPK

CDK5/p25, sequence (Q00535 whole entry, species assumed): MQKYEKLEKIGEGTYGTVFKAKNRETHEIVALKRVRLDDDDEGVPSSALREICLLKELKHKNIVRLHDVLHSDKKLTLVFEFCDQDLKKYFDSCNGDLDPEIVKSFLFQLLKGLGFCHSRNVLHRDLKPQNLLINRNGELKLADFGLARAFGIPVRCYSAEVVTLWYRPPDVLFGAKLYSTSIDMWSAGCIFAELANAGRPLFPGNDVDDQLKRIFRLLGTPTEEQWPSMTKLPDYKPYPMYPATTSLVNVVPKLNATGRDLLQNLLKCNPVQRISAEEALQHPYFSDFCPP
CDK5/p25, sequence (Q15078 99-307 partner limits assumed, species assumed): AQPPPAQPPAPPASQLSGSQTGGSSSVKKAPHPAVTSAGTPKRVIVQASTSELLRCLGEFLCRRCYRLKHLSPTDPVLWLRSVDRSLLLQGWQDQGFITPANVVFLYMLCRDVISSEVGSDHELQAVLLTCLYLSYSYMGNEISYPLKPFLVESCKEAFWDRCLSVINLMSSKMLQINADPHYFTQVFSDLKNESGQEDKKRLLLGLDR

| pIC50 (GSK-3α/β) | pIC50 (CDK5/p25) | pIC50 (DYRK1A) | pIC50 ([1]; Homo sapiens) | pIC50 (CK1δ/ε) | pIC50 (CDK1/cyclin B) | pIC50 (CDK2/cyclin A) | pIC50 (CDK9/cyclin T) | pIC50 [1] | SMILES |
| --- | --- | --- | --- | --- | --- | --- | --- | --- | --- |
| 5.85 | 7.47 | 6.09 | 7.30 | 6.03 |  |  |  |  | CCc1cnn2c(NCc3ccc(-c4ccccn4)cc3)nc(N[C@@H](CC)CO)nc12 [Compound 35, (S)-8-ethyl-2-(1-hydroxybut-2-ylamino)-4-[4-(pyridin-2-yl)benzylamino]pyrazolo[1,5-a]-1,3,5-triazine] |
| 5.36 | 7.28 | 6.04 |  | 7.04 | 7.15 | 7.21 | 7.17 |  | CC(C)c1cnn2c(NCc3ccc(-c4ccccn4)cc3)nc(NC(CO)CO)nc12 [Compound 17, 2-(1,3-dihydroxyprop-2-ylamino)-8-isopropyl-4-[4-(pyridin-2-yl)benzylamino]pyrazolo[1,5-a]-1,3,5-triazine] |
| 5.52 | 7.54 | 6.33 |  | 6.70 | 7.54 | 7.66 | 7.22 |  | CC(C)c1cnn2c(NCc3ccc(-c4ccccn4)cc3)nc(N[C@H](CO)[C@@H](C)O)nc12 (stereo in doubt) [Compound 12, (2R,3R)-2-(1,3-dihydroxybut-2-ylamino)-8-isopropyl-4-[4-(pyridin-2-yl)benzylamino]pyrazolo[1,5-a]-1,3,5-triazine] |
| 5.92 | 7.37 | 5.92 |  | 6.96 |  |  |  |  | CC(C)c1cnn2c(NCc3ccc(-c4ccccc4)nc3)nc(N[C@@H](CO)[C@H](C)O)nc12 [Compound 21] |
| 5.15 | 6.92 | 6.24 |  | 6.39 |  |  |  |  | CC(C)c1cnn2c(NCc3ccc(-c4ccccn4)cc3)nc(N[C@H](CO)C(C)C)nc12 [Compound 28, (S)-2-(1-hydroxy-3-methylbut-2-ylamino)-8-isopropyl-4-[4-(pyridin-2-yl)benzylamino]pyrazolo[1,5-a]-1,3,5-triazine] |
| 5.66 | 7.35 | 6.28 |  | 6.92 | 7.38 | 7.51 | 7.22 |  | CC(C)c1cnn2c(NCc3ccc(-c4ccccn4)cc3)nc(N[C@@H](CO)[C@H](C)O)nc12 [Compound 15, Fumarate salt of (2S,3S)-2-(1,3-dihydroxybut-2-ylamino)-8-isopropyl-4-[4-(pyridin-2-yl)benzylamino]pyrazolo[1,5-a]-1,3,5-triazine] |
| 5.46 | 7.51 | 6.30 |  | 6.68 | 7.64 | 7.80 | 7.52 | 7.10 | CC[C@@H](CO)Nc1nc(NCc2ccc(-c3ccccn3)cc2)n2ncc(C(C)C)c2n1 [Compound 5, Fumarate salt of (S)-2-(1-hydroxybut-2-ylamino)-8-isopropyl-4-[4-(pyridin-2-yl)benzylamino]pyrazolo[1,5-a]-1,3,5-triazine] |
| 6.00 | 7.60 | 6.15 | > 7.52 | 6.44 |  |  |  |  | CCc1cnn2c(NCc3ccc(-c4ccccn4)cc3)nc(NC[C@@H](O)CO)nc12 [Compound 31, (R)-2-(1,2-dihydroxypropan-3-ylamino)-8-ethyl-4-[4-(pyridin-2-yl)benzylamino]pyrazolo[1,5-a]-1,3,5-triazine] |
| 5.92 | > 7.52 | 5.89 |  | 6.89 |  |  |  |  | CC(C)c1cnn2c(NCc3ccc(-c4ccccc4)nc3)nc(N[C@H](CO)[C@@H](C)O)nc12 [Compound 23] |
| 5.38 | 7.30 | 5.74 |  | 6.72 | 7.23 | 7.47 | 7.04 |  | CC(C)c1cnn2c(NCc3ccc(-c4ccsc4)cc3)nc(N[C@H](CO)[C@@H](C)O)nc12 (stereo in doubt) [Compound 16, (2R,3R)-2-(1,3-dihydroxybut-2-ylamino)-8-isopropyl-4-[4-(thiophen-3-yl)benzylamino]pyrazolo[1,5-a]-1,3,5-triazine] |
| 5.60 | 7.36 | 6.24 |  | 6.92 | 7.38 | 7.38 | 7.28 |  | CC(C)c1cnn2c(NCc3ccc(-c4ccccn4)cc3)nc(N[C@@H](CO)[C@H](C)O)nc12 (stereo in doubt) [Compound 14, (2S,3S)-2-(1,3-dihydroxybut-2-ylamino)-8-isopropyl-4-[4-(pyridin-2-yl)benzylamino]pyrazolo[1,5-a]-1,3,5-triazine] |
| 5.74 | 7.85 | 6.59 |  | 7.21 | 7.72 | 7.92 | 7.42 |  | CC(C)c1cnn2c(NCc3ccc(-c4ccccn4)cc3)nc(NC[C@H](O)CO)nc12 [Compound 9, Fumarate salt of (S)-2-(1,2-dihydroxypropan-3-ylamino)-8-isopropyl-4-[4-(pyridin-2-yl)benzylamino]pyrazolo[1,5-a]-1,3,5-triazine] |
| 5.80 | 7.66 | 5.80 | 7.59 | 6.24 |  |  |  |  | CCc1cnn2c(NCc3ccc(-c4ccccn4)cc3)nc(N[C@H](CC)CO)nc12 [Compound 36, (R)-8-ethyl-2-(1-hydroxybut-2-ylamino)-4-[4-(pyridin-2-yl)benzylamino]pyrazolo[1,5-a]-1,3,5-triazine] |
| 5.55 | 7.19 | 6.21 |  | 6.92 | 7.29 | 7.31 | 7.21 |  | CC(C)c1cnn2c(NCc3ccc(-c4ccccn4)cc3)nc(NC(CO)CO)nc12 [Compound 18, Fumarate salt of 2-(1,3-dihydroxyprop-2-ylamino)-8-isopropyl-4-[4-(pyridin-2-yl)benzylamino]pyrazolo[1,5-a]-1,3,5-triazine] |
| 5.64 | 7.68 | 6.52 |  | 6.74 | 7.51 | 7.70 | 7.31 |  | CC(C)c1cnn2c(NCc3ccc(-c4ccccn4)cc3)nc(N[C@H](CO)[C@@H](C)O)nc12 [Compound 13, Fumarate salt of (2R,3R)-2-(1,3-dihydroxybut-2-ylamino)-8-isopropyl-4-[4-(pyridin-2-yl)benzylamino]pyrazolo[1,5-a]-1,3,5-triazine] |
| 5.68 | 6.42 | 5.85 | 5.85 | 6.25 |  |  |  |  | CC(C)c1cnn2c(NCc3ccc(-c4ccccn4)cc3)nc(N3CCN(CCO)CC3)nc12 [Compound 30, 2-[4-[8-isopropyl-4-[[4-(pyridin-2-yl)phenyl]methylamino]pyrazolo[1,5-a]-1,3,5-triazin-2-yl]piperazin-1-yl]ethanol] |
